Each compound was assayed against T1, PI3Kδ (Homo sapiens, UniProt O00329) (assay: PI3Kδ inhibition, modified PIK3CD Adapta TR-FRET assay). Details: recombinant GST-tagged full length PIK3CD co-expressed with PIK3R1 (p85α); 2 μM ATP, 50 μM PIP2; read-out: PI3Kδ Inhibition (pIC50) (converted).
T1 construct: The protein is full length and co-expressed with untagged PIK3R1; GST; purchased Invitrogen PV5274
Type: biochemical
Method: The activity of compounds as PI3Kδ inhibitors may be determined by a variety of methods, including in vitro and in vivo methods. The following in vitro assay measures a test compound's ability to inhibit PI3Kδ-mediated phosphorylation of PIP2 and ATP.
Recombinant GST-tagged PIK3CD is purchased from Invitrogen (Part Number: PV5274). The protein is full length and co-expressed with untagged PIK3R1, phosphoinositide-3-kinase regulatory subunit 1 (p85α). The protein is stored at −20° C. in 50 mM TRIS (pH 7.5), 150 mM NaCl, 0.5 mM EDTA, 0.02% Triton® X-100, 2 mM DTT, and 50% glycerol.
A modified PIK3CD Adapta® assay (Invitrogen, Carlsbad, Calif.) is used to measure PI3Kδ inhibition of the example compounds. The assay has two phases. In the first phase, kinase reaction components, which include the enzyme (PIK3CD), substrates (PIP2, ATP), test compound (inhibitor), and assay buffer are added to each well, and the reaction is allowed to incubate for a pre-determined period of time. […] In the presence of the inhibitor, the amount of ADP formed by the kinase reaction is reduced, and the resulting intact antibody-tracer interaction maintains a high TR-FRET signal.
The reaction buffer contains 50 mM Hepes (pH 7.5), 3 mM MgCl2, 1 mM EGTA, 100 mM NaCl, 0.03% CHAPS; 2 mM DTT is added fresh prior to each experiment. […] Next, test compounds (2 μL) from a source plate (5% dilution plate) are introduced into the wells. The final DMSO concentration in each assay well is 1%. […] Other wells contain test compounds serially diluted across the plate 11 times for a total of 12 data points. The kinase reactions are carried out at room temperature and are initiated by the addition of 4 μL of solution containing 2 μM ATP and 50 μM PIP2. […] This emission signal is referenced or “ratioed” to the emission from Eu at 620 nm. […] The percent inhibition for a given inhibitor concentration is computed from % conversion for the reaction and for the positive and negative controls.

T1 sequence (O00329 whole entry): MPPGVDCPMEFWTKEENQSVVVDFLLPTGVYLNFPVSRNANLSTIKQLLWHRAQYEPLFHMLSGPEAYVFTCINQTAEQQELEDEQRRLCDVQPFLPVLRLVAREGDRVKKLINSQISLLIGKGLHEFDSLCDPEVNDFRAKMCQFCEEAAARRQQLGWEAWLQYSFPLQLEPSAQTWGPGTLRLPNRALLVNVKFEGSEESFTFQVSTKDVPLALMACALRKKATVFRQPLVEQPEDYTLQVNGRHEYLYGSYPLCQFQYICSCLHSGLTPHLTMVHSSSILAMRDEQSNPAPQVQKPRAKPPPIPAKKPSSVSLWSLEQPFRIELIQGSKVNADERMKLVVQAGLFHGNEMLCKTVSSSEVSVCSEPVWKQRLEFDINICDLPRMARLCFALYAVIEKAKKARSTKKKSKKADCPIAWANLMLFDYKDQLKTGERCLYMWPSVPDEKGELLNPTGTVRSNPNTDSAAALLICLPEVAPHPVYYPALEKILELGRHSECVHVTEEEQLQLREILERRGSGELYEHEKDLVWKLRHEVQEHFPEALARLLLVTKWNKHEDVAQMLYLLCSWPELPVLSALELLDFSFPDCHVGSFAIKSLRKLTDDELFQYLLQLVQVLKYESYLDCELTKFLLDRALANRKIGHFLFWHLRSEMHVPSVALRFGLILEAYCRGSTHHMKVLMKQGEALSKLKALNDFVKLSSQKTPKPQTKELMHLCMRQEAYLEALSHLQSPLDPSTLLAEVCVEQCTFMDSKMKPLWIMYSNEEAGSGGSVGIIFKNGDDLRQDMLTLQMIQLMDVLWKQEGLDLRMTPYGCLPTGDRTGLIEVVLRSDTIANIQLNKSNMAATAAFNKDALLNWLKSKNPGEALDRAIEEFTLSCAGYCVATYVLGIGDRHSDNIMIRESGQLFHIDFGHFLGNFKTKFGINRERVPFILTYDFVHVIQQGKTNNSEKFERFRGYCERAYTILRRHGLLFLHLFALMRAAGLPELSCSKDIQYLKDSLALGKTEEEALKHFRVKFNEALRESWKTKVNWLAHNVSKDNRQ
T1 sequence (P27986 whole entry partner): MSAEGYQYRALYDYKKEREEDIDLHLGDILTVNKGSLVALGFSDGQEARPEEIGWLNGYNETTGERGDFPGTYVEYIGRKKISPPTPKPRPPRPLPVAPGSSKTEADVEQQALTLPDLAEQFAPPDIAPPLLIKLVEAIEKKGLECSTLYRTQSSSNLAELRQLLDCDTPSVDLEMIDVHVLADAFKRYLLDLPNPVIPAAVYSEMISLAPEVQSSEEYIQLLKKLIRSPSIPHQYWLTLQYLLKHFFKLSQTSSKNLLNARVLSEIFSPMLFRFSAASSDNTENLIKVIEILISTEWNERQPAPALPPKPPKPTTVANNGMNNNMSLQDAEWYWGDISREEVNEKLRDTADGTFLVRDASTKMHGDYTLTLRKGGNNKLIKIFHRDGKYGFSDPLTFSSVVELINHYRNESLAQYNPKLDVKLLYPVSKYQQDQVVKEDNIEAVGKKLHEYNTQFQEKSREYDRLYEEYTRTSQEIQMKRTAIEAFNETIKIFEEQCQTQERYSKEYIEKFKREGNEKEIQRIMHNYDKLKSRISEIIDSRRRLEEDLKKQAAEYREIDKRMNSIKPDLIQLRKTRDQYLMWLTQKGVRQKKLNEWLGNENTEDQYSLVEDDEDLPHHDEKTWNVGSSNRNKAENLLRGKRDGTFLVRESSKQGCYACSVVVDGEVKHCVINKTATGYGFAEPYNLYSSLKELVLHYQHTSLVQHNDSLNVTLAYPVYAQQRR

Point of comparison: `COc1cc(-c2ncc3c(n2)N2CCOCC2CN3)ccn1` (centres unmarked) [Example 14, 2-(2-methoxypyridin-4-yl)-5,6,6a,7,9,10-hexahydro-[1,4]oxazino[3,4-h]pteridine], IC50 5010 nM. Against it:
- COc1ccc2c(-c3ncc4c(n3)N3CCOCC3CN4)c[nH]c2c1 (centres unmarked) [Example 8, 2-(6-methoxy-1H-indol-3-yl)-5,6,6a,7,9,10-hexahydro-[1,4]oxazino[3,4-h]pteridine] — higher, > 10000 nM
- COc1cccc2c(-c3ncc4c(n3)N3CCOCC3CN4)c[nH]c12 (centres unmarked) [Example 9, 2-(7-methoxy-1H-indol-3-yl)-5,6,6a,7,9,10-hexahydro-[1,4]oxazino[3,4-h]pteridine] — higher, > 10000 nM
- c1cc(-c2ncc3c(n2)N2CCOCC2CN3)c2nc[nH]c2c1 (centres unmarked) [Example 10, 2-(1H-benzo[d]imidazol-4-yl)-5,6,6a,7,9,10-hexahydro-[1,4]oxazino[3,4-h]pteridine] — 1.6-fold lower, 3160 nM
- Clc1cccc2c(-c3ncc4c(n3)N3CCOCC3CN4)c[nH]c12 (centres unmarked) [Example 11, 2-(7-chloro-1H-indol-3-yl)-5,6,6a,7,9,10-hexahydro-[1,4]oxazino[3,4-h]pteridine] — higher, > 10000 nM
- Oc1cc2c(-c3ncc4c(n3)N3CCOCC3CN4)cccc2[nH]1 (centres unmarked) [Example 12, 4-(5,6,6a,7,9,10-hexahydro-[1,4]oxazino[3,4-h]pteridin-2-yl)-1H-indol-2-ol] — 1.6-fold higher, 7940 nM
- CC(C)(O)c1ccc(CN2CC3COCCN3c3nc(-c4cccc5[nH]ccc45)ncc32)cc1 (centres unmarked) [Example 13, 2-(4-((2-(1H-indol-4-yl)-6a,7,9,10-tetrahydro-[1,4]oxazino[3,4-h]pteridin-5(6H)-yl)methyl)phenyl)propan-2-ol] — 320-fold lower, 15.8 nM
- c1cc(-c2ncc3c(n2)N2CCOCC2CN3)c2cc[nH]c2n1 (centres unmarked) [Example 15, 2-(1H-pyrrolo[2,3-b]pyridin-4-yl)-5,6,6a,7,9,10-hexahydro-[1,4]oxazino[3,4-h]pteridine] — 13-fold lower, 398 nM
- Cc1c[nH]c2c(F)ccc(-c3ncc4c(n3)N3CCOCC3CN4Cc3ccc(S(C)(=O)=O)cc3)c12 (centres unmarked) [Example 16, 2-(7-fluoro-3-methyl-1H-indol-4-yl)-5-(4-(methylsulfonyl)benzyl)-5,6,6a,7,9,10-hexahydro-[1,4]oxazino[3,4-h]pteridine] — within 1.5-fold, 6310 nM
- CS(=O)(=O)c1ccc(CN2CC3COCCN3c3nc(-c4ccc(F)c5[nH]ccc45)ncc32)cc1 (centres unmarked) [Example 17, 2-(7-fluoro-1H-indol-4-yl)-5-(4-(methylsulfonyl)benzyl)-5,6,6a,7,9,10-hexahydro-[1,4]oxazino[3,4-h]pteridine] — 130-fold lower, 39.8 nM
- Cc1ccc(S(=O)(=O)N2CC3COCCN3c3nc(-c4cccc5[nH]ccc45)ncc32)cc1 (centres unmarked) [Example 18, 2-(1H-indol-4-yl)-5-tosyl-5,6,6a,7,9,10-hexahydro-[1,4]oxazino[3,4-h]pteridine] — 13-fold lower, 398 nM
- CS(=O)(=O)c1ccc(CN2CC3COCCN3c3nc(-c4cccc5[nH]ccc45)ncc32)cc1 (centres unmarked) [Example 19, 2-(1H-indol-4-yl)-5-(4-(methylsulfonyl)benzyl)-5,6,6a,7,9,10-hexahydro-[1,4]oxazino[3,4-h]pteridine] — 500-fold lower, 10 nM
- COc1ccc(CC(=O)N2CC3COCCN3c3nc(-c4cccc5[nH]ccc45)ncc32)cc1 (centres unmarked) [Example 20, 1-(2-(1H-indol-4-yl)-6a,7,9,10-tetrahydro-[1,4]oxazino[3,4-h]pteridin-5(6H)-yl)-2-(4-methoxyphenyl)ethanone] — 10-fold lower, 501 nM
- CS(=O)(=O)c1ccc(CN2CC3COCCN3c3nc(-c4cccc5[nH]c(C(F)(F)F)cc45)ncc32)cc1 (centres unmarked) [Example 21, 5-(4-(methylsulfonyl)benzyl)-2-(2-(trifluoromethyl)-1H-indol-4-yl)-5,6,6a,7,9,10-hexahydro-[1,4]oxazino[3,4-h]pteridine] — 4-fold lower, 1260 nM
- CS(=O)(=O)c1ccc(CN2CC3COCCN3c3nc(-c4cccc5[nH]ncc45)ncc32)cc1 (centres unmarked) [Example 22, 2-(1H-indazol-4-yl)-5-(4-(methylsulfonyl)benzyl)-5,6,6a,7,9,10-hexahydro-[1,4]oxazino[3,4-h]pteridine] — 250-fold lower, 20 nM
- CS(=O)(=O)c1ccc(CN2CC3COCCN3c3nc(-c4cncc5[nH]ccc45)ncc32)cc1 (centres unmarked) [Example 23, 5-(4-(methylsulfonyl)benzyl)-2-(1H-pyrrolo[2,3-c]pyridin-4-yl)-5,6,6a,7,9,10-hexahydro-[1,4]oxazino[3,4-h]pteridine] — 1000-fold lower, 5.01 nM
- CS(=O)(=O)c1ccc(CN2CC3COCCN3c3nc(-c4cnc5cc[nH]c5c4)ncc32)cc1 (centres unmarked) [Example 24, 5-(4-(methylsulfonyl)benzyl)-2-(1H-pyrrolo[3,2-b]pyridin-6-yl)-5,6,6a,7,9,10-hexahydro-[1,4]oxazino[3,4-h]pteridine] — 79-fold lower, 63.1 nM
- CS(=O)(=O)c1ccc(CN2CC3COCCN3c3nc(-c4cnc5[nH]ccc5c4)ncc32)cc1 (centres unmarked) [Example 25, 5-(4-(methylsulfonyl)benzyl)-2-(1H-pyrrolo[2,3-b]pyridin-5-yl)-5,6,6a,7,9,10-hexahydro-[1,4]oxazino[3,4-h]pteridine] — 32-fold lower, 158 nM
- Cc1nc(-c2cccc3[nH]ccc23)nc2c1N(Cc1ccc(S(C)(=O)=O)cc1)CC1COCCN21 (centres unmarked) [Example 26, 2-(1H-indol-4-yl)-4-methyl-5-(4-(methylsulfonyl)benzyl)-5,6,6a,7,9,10-hexahydro-[1,4]oxazino[3,4-h]pteridine] — 20-fold lower, 251 nM
- Cc1nc(-c2cccc3[nH]ccc23)nc2c1N(CC1CC1)CC1COCCN21 (centres unmarked) [Example 27, 5-(cyclopropylmethyl)-2-(1H-indol-4-yl)-4-methyl-5,6,6a,7,9,10-hexahydro-[1,4]oxazino[3,4-h]pteridine] — 20-fold lower, 251 nM
- CS(=O)(=O)c1ccc(CN2C[C@H]3COCCN3c3nc(-c4cccc5[nH]ccc45)ncc32)cc1 [Example 28, (S)-2-(1H-indol-4-yl)-5-(4-(methylsulfonyl)benzyl)-5,6,6a,7,9,10-hexahydro-[1,4]oxazino[3,4-h]pteridine] — 7.9-fold lower, 631 nM
- CS(=O)(=O)c1ccc(CN2C[C@@H]3COCCN3c3nc(-c4cccc5[nH]ccc45)ncc32)cc1 [Example 29, (R)-2-(1H-indol-4-yl)-5-(4-(methylsulfonyl)benzyl)-5,6,6a,7,9,10-hexahydro-[1,4]oxazino[3,4-h]pteridine] — 1000-fold lower, 5.01 nM
- CS(=O)(=O)c1ccc(CN2C[C@@H]3COCCN3c3nc(-c4cncc5[nH]ccc45)ncc32)cc1 [Example 30, (R)-5-(4-(methylsulfonyl)benzyl)-2-(1H-pyrrolo[2,3-c]pyridin-4-yl)-5,6,6a,7,9,10-hexahydro-[1,4]oxazino[3,4-h]pteridine] — 4000-fold lower, 1.26 nM
- CCc1nnc(CN2C[C@@H]3COCCN3c3nc(-c4cccc5[nH]ccc45)ncc32)o1 [Example 31, (R)-5-((5-ethyl-1,3,4-oxadiazol-2-yl)methyl)-2-(1H-indol-4-yl)-5,6,6a,7,9,10-hexahydro-[1,4]oxazino[3,4-h]pteridine] — 630-fold lower, 7.94 nM
- c1ccc(OCCN2CC3COCCN3c3nc(-c4cccc5[nH]ccc45)ncc32)cc1 (centres unmarked) [Example 32, 2-(1H-indol-4-yl)-5-(2-phenoxyethyl)-5,6,6a,7,9,10-hexahydro-[1,4]oxazino[3,4-h]pteridine] — 63-fold lower, 79.4 nM
- c1csc(-c2nnc(CN3CC4COCCN4c4nc(-c5cccc6[nH]ccc56)ncc43)o2)c1 (centres unmarked) [Example 33, 2-(1H-indol-4-yl)-5-((5-(thiophen-2-yl)-1,3,4-oxadiazol-2-yl)methyl)-5,6,6a,7,9,10-hexahydro-[1,4]oxazino[3,4-h]pteridine] — 400-fold lower, 12.6 nM

Source: US8791107B2, “N-substituted oxazinopteridines and oxazinopteridinones” (Takeda Pharmaceutical Company Limited, priority 2011, dated 2014)
